Measured values published in the NIST ThermoML archive (doi:10.1016/j.fluid.2016.02.031).

Test: refractive index (Na D-line) (dimensionless); xn = mol fraction of the nth substance listed
Conditions: 100 kPa, Liquid, Standard Abbe refractometry

c1ccncc1 [pyridine] + CCC(C)=O
refractive index
Conditions | 288.15 K | 293.15 K | 298.15 K | 303.15 K | 308.15 K | 313.15 K | 318.15 K | 323.15 K | 328.15 K | 333.15 K
x1 = 0.1006 | 1.39357 | 1.39094 | 1.3883 | 1.38577 | 1.38311 | 1.38031 | 1.37775 | 1.37505 | 1.37234 | 1.36942
x1 = 0.2019 | 1.40586 | 1.40321 | 1.40056 | 1.39791 | 1.39527 | 1.3926 | 1.38992 | 1.38721 | 1.38453 | 1.38158
x1 = 0.3002 | 1.41813 | 1.41548 | 1.41282 | 1.41015 | 1.40751 | 1.40483 | 1.40214 | 1.39946 | 1.39666 | 1.39394
x1 = 0.4004 | 1.43104 | 1.42836 | 1.42568 | 1.42298 | 1.4203 | 1.4176 | 1.41489 | 1.41218 | 1.40942 | 1.40669
x1 = 0.4999 | 1.44407 | 1.44138 | 1.43868 | 1.43597 | 1.43325 | 1.43052 | 1.42779 | 1.42502 | 1.42228 | 1.41944
x1 = 0.597 | 1.45674 | 1.45401 | 1.4513 | 1.44857 | 1.44585 | 1.44311 | 1.44039 | 1.43765 | 1.43488 | 1.43213
x1 = 0.6998 | 1.4705 | 1.46776 | 1.46502 | 1.46227 | 1.45952 | 1.45678 | 1.45404 | 1.4513 | 1.44853 | 1.44586
x1 = 0.7945 | 1.48331 | 1.48055 | 1.47779 | 1.47504 | 1.47226 | 1.4695 | 1.46675 | 1.46402 | 1.46124 | 1.45866
x1 = 0.8962 | 1.49734 | 1.49455 | 1.49176 | 1.48899 | 1.4862 | 1.48343 | 1.48066 | 1.47793 | 1.47513 | 1.4726
x1 = 1 | 1.51204 | 1.50923 | 1.50636 | 1.50355 | 1.50076 | 1.49796 | 1.49522 | 1.49245 | 1.48962 | 1.48708

OCCCO [propan-1,3-diol] + CCC(C)=O
refractive index
Conditions | 288.15 K | 293.15 K | 298.15 K | 303.15 K | 308.15 K | 313.15 K | 318.15 K | 323.15 K | 328.15 K | 333.15 K
x1 = 0.1052 | 1.38816 | 1.3857 | 1.38318 | 1.38072 | 1.3783 | 1.37575 | 1.37324 | 1.3706 | 1.36798 | 1.36512
x1 = 0.2004 | 1.39411 | 1.39177 | 1.38937 | 1.38701 | 1.38469 | 1.38226 | 1.37988 | 1.37728 | 1.37479 | 1.37205
x1 = 0.3002 | 1.40019 | 1.39791 | 1.39561 | 1.39336 | 1.39119 | 1.38891 | 1.38656 | 1.38422 | 1.38186 | 1.3793
x1 = 0.4003 | 1.40646 | 1.4043 | 1.40216 | 1.40002 | 1.39791 | 1.39575 | 1.39357 | 1.39132 | 1.38903 | 1.38657
x1 = 0.4999 | 1.41261 | 1.41059 | 1.40857 | 1.40654 | 1.40452 | 1.40246 | 1.40036 | 1.39822 | 1.39608 | 1.3938
x1 = 0.5992 | 1.41868 | 1.4168 | 1.4149 | 1.41298 | 1.41104 | 1.4091 | 1.40712 | 1.40508 | 1.40306 | 1.40096
x1 = 0.6992 | 1.42474 | 1.42295 | 1.42116 | 1.41936 | 1.41754 | 1.41566 | 1.41382 | 1.41196 | 1.41006 | 1.4081
x1 = 0.7989 | 1.43046 | 1.42881 | 1.42712 | 1.42544 | 1.42374 | 1.42201 | 1.4203 | 1.41857 | 1.4168 | 1.41497
x1 = 0.8998 | 1.43588 | 1.43434 | 1.43277 | 1.43123 | 1.42967 | 1.42812 | 1.42654 | 1.42496 | 1.42335 | 1.42166
x1 = 1 | 1.44073 | 1.43932 | 1.43792 | 1.43654 | 1.43513 | 1.43375 | 1.43232 | 1.43087 | 1.42945 | 1.42803
